Assay [1] deals with NO, TNF-α, IL-1β, and IL-6. As to the kind of experiment: Cisplatin-induced renal injury: pro-inflammatory cytokines in serum (ELISA). In kind it is in vivo, mice. As to conditions: compound, dose not given. On the procedure:
TNF-α, IL-6, and IL-1β cytokines in serum The serum concentration of the pro-inflammatory cytokines (i.e. tumor necrosis factor-α (TNF-α), interleukin-6 (IL-6), and IL-1β) in serum are assessed with relevant enzyme-linked immunosorbent assay (ELISA) kits (Biosource International Inc., Sunnyvale, Calif., USA), based on the manufacturer's instructions.
(§1) Seven-to-eight-week-old male C57BL/6 mice are obtained from the BioLASCO Taiwan Co., Ltd. (Taipei, Taiwan). The animals are housed in Plexiglas cages at a constant temperature of 22±1° C. and a relative humidity of 55±5% on a 12 h dark-light cycle for at least 2 weeks before the experiment. Animals are provided food and water ad libitum. All experimental procedures are performed according to the guidelines of the Institutional Animal Ethics Committee, and the protocol is approved by the Committee for the Purpose of Control and Supervision of Experiments on Animals.
Renal fibrosis is induced via multiple injections of low-dose cisplatin. Intraperitoneal injections of cisplatin (5 mg/kg/injection; P4394, Sigma-Aldrich, St Louis, Mo.) are performed at 0, 1, and 3 weeks, for a total of 3 injections. Mice are sacrificed at 6 weeks after the first dose of cisplatin (n=6). […]
For orientation: An ELISA detects its analyte on a solid surface through an enzyme-linked reagent.

The next assay relates to HepG2 cells. Nature of the assay: Oleic acid-induced steatosis in HepG2 cells (Oil Red O). To be noted: 6 h pre-treatment, then 0.5 mM OA for 24 h, OD 510 nm, at noncytotoxic concentration. In kind it is cell-based, human. On the procedure:
Oleic acid (OA) induced steatosis in HepG2 cells and may consider an in vitro model for human fatty liver disease. HepG2 cells were treated with different concentrations of oleic acid (OA) to induce steatosis. Intracellular lipid was stained by Oil Red O (ORO), and quantified by colorimetric assay. 0.5 mM OA was chosen for further studies (FIGS. 37 and 38). HepG2 cells were treated with test compounds ([…]) and incubated for 48 h (FIG. 39). HepG2 cells were seeded in 24-well plates and deprived from FBS for 24 h. These cells were then treated with different concentrations of test compounds for 6 h before induced with 0.5 mM OA for 24 h. Cells were gently washed with PBS and fixed using paraformaldehyde at RT, then stained with Oil Red (ORO) solution for 30 min at RT. ORO stain was extracted using pure isopropanol and the optical density was detected at 510 nm (FIG. 40).

In assay [2] the test system is CCl4-induced chronic liver fibrosis. Nature of the assay: CCl4-induced chronic liver fibrosis in rat. To be noted: in vivo. On the procedure:
Blood samples are collected at week 0, 2, 4, 6, and 8. The animals are sacrificed at the end of the 8-week for histopathological examinations. FIGS. 7A, 7B, 7C depict delta weight, liver weight, and liver/body-weight ratio, respectively.
The level of clinical biochemistry such as aspartate aminotransferase (AST), alanine aminotransferase (ALT), is evaluated to determine the enzymatic activities of the livers of the control groups and the experimental groups (shown in FIGS. 8A-8C).

Assay [3] relates to Con A-induced acute hepatitis. As to the kind of experiment: Con A (concanavalin A) induced acute hepatitis in BALB/c mice. The assay is classed as in vivo. To be noted: 24 h after Con A; mean±SEM; vehicle 1.4±0.2. An excerpt:
Intravenous injection of concanavalin A (Con A) is a widely used strategy to study T cell mediated hepatitis. Con A is a lectin that can activate CD4^+ T cells, produce cytokines, and lead to liver cell damage. Dexamethasone (Dex) is a long acting synthetic corticosteroid, and has been used as anti-inflammatory and immunosuppressive medication.
Male BALB/c mice (7-9 weeks old) were purchased from BioLASCO Taiwan Co., Ltd or National Laboratory Animal Center (NLAC, Taiwan). Animals are housed five per cage with food and water provided ad libitum throughout the experiments. Room temperature is maintained at 23±2° C. with an alternating 12 h light dark cycle. Animals are acclimatized for one week to minimize the effect of stress before the experiments. All experimental protocols involving animals and their care are approved by the Institutional Animal Care and Use Committee (IACUC) in ITRI (ITRI-IACUC-2018-041 and ITRI-IACUC-2018-050; accredited by AAALAC) and are carried out according to the regulations of the Council of Agriculture, Taiwan. […]
To assess the level of hepatocellular injury after Con A treatment, serum GPT and GOT levels are measured by Fuji Dri-Chem slides (Fuji, Japan). […] Cytokine levels are measured by ProcartaPlex™ immunoassays kit according to manufacturer's instructions. […]

The subject of assay [4] is cisplatin-induced renal injury. Nature of the assay: Mice model of cisplatin-induced renal injury: serum creatinine (CRE) and BUN. The assay is classed as in vivo. To be noted: compounds, dose not given, daily for 7 days; p<0.001 vs cisplatin group. The protocol: Determination of biochemical parameters Serum creatinine and serum urea are assessed using colorimetric kits according to manufacturer's instructions. Kits of the former markers are purchased from (HUMAN Diagnostics Worldwide, Magdeburg, Germany) with a chemical analyzer (Roche Diagnostics, Cobas Mira Plus, Rotkreuz, Switzerland).
as §1
Renal fibrosis is induced via multiple injections of low-dose cisplatin. Intraperitoneal injections of cisplatin (5 mg/kg/injection; P4394, Sigma-Aldrich, St Louis, Mo.) are performed at 0, 1, and 3 weeks, for a total of 3 injections. Mice are sacrificed at 6 weeks after the first dose of cisplatin (n=6). To analyze the effects of samples, mice are given daily intraperitoneal injections for 7 days, starting from 4 weeks after first dose of cisplatin, and sacrificed at […] (n=6). […]

For assay [5], the system named is cisplatin-induced renal injury. Nature of the assay: Cisplatin-induced renal injury: kidney histopathology (H&E). In kind it is in vivo, mice. To be noted: compound, dose not given.
Excerpt: Kidney histopathology The anterior portion of the left lateral liver lobe from each mouse is fixed in 10% formaldehyde phosphate buffer, embedded in paraffin, cut into 5 μm sections, and then treated with an hematoxylin and eosin (H&E) stain for histological examination under the light microscopy (Nikon, ECLIPSE, TS100, Tokyo, Japan). Images are captured with a digital camera (NIS-Elements D 2.30, SP4, Build 387) at an original magnification of 400×.
as §1
Renal fibrosis is induced via multiple injections of low-dose cisplatin. […]
The histopathological changes are analyzed to determine whether Antrodia camphorata extract and compounds affected renal failure in cisplatin-stimulated mice. […]

Assay [6] concerns bleomycin-induced pulmonary fibrosis. Nature of the assay: Bleomycin-induced pulmonary fibrosis in mice: body weight, lung weight, lung index. In kind it is in vivo. As to conditions: for Pulmonary index: lung weight/body weight×100. On the procedure:
Specific pathogen-free ICR mice (males) (body weights 18-22 g) were purchased from the BioLASCO Taiwan Co., Ltd. (Taipei, Taiwan). The animals were housed in Plexiglas cages at a constant temperature of 22±1° C. and a relative humidity of 55±5% on a 12 h dark-light cycle for at least 2 weeks before the experiment. Animals were provided food and water ad libitum. All experimental procedures were performed according to the guidelines of the Institutional Animal Ethics Committee, and the protocol was approved by the Committee for the Purpose of Control and Supervision of Experiments on Animals.
Mice were divided into fifth groups with 5 animals per group according to body weight: control group, BLM group, BLM+DEX group (7.5 mg/kg), BLM+ACH dosage group (50 mg/kg), and BLM+ACM dosage group (25 mg/kg), BLM+ACH dosage group (50 mg/kg), and BLM+ACM dosage group (25 mg/kg) BLM+AH dosage group (50 mg/kg), and BLM+AM dosage group (25 mg/kg) BLM+BH dosage group (50 mg/kg), and BLM+BM dosage group (25 mg/kg) BLM+CH dosage group (50 mg/kg), and BLM+CM dosage group (25 mg/kg) BLM+DH dosage group (50 mg/kg), and BLM+DM dosage group (25 mg/kg) BLM+EH dosage group (50 mg/kg), and BLM+EM dosage group (25 mg/kg) BLM. Pulmonary fibrosis (PF) was established in mice via a single intratracheal administration of BLM at 7.5 mg/kg mg/kg body weight. Different doses of samples were intragastrically administered daily for 21 days after BLM injury, and DEX was used as the positive control. Control and model groups received an equal volume of vehicle (0.9% NaCl) using the same schedule and route of administration.
Mouse body weights were recorded daily. Mice were sacrificed on the 21th day using excess chloral hydrate hydrochloride anesthesia. Blood was obtained for ELISA analyses, and whole lungs were removed and weighed. The right lungs were fixed in 10% formalin, dehydrated, and embedded in paraffin. The left lungs were used to determine hydroxyproline. The pulmonary coefficient was calculated using the following equation: lung weight/body weight×100% […]
At the end point of the entire experiment, the animal's body weight and lung weight were recorded.

The mark [7] stands for this setting: 25 mg/kg intragastric daily for 21 days after BLM.
[8] abbreviates: 50 mg/kg intragastric daily for 21 days after BLM.

With `C=C1C(=O)O[C@H]2/C=C(\C)CC3C=C(CC/C=C(\C)CC[C@H]12)C(=O)O3` (some centres unmarked) [AR100-DS1, Ovatodiolide], in assay [1], the “NO, TNF-α, IL-1β, and IL-6 production after cisplatin challenge” value is recorded as “improved”. In the assay on HepG2 cells, the “OA-induced steatosis in HepG2 cells” value is listed as “inhibition”. Further, the “CCl4-induced liver injury, overall” value in assay [2] was “potential to partially repair”. Moreover, the “liver necrosis histopathological score (0 to 4)” value in assay [3] is 0.2±0.2. Besides, the “renal protection effect (normalization of serum CRE and BUN)” value in assay [4] was “significant renal protection effect”. Further, the “necrosis and inflammatory infiltrating cells in the kidney tissue” value in assay [5] is reported as “significantly improved”.
In the case of `C=C(CC[C@@H](C(=O)O)[C@H]1CC[C@@]2(C)C3=CC[C@H]4C(C)(C)[C@@H](O)CC[C@]4(C)C3=CC[C@]12C)C(C)C` [AR101-DS4, Dehydroeburicoic Acid], the “OA-induced steatosis in HepG2 cells” value in the assay on HepG2 cells is “inhibition”. The “renal protection effect (normalization of serum CRE and BUN)” value in assay [4] was “significant renal protection effect”. In addition, in assay [6] (setting [7]), the Final body mass worked out at 36.44 ± 0.28 g, the Pulmonary mass is given as 0.52 ± 0.01 g and the Pulmonary index is listed as 1.54 ± 0.04. In assay [6] (setting [8]), this compound displayed a Final body mass of 37.47 ± 0.22 g, a Pulmonary mass of 0.49 ± 0.01 g and a Pulmonary index of 1.31 ± 0.01.

(Values after US20230041859A1, “USE OF TERPENOIDS IN THE TREATMENT OR PREVENTION OF FIBROTIC DISEASES” (Arjil Biotech Holding Company Limited, priority 2021, published 2023).)
